Legend:
[1] = system: Edwardsiella tarda E08-18 strain (エドワジエラ・タルダ E08−18株); experiment: Test Example 3: artificial infection treatment test (2) in red sea bream; format: in vivo; conditions: for mortality rate: red sea bream juveniles (27 g), 4.6×10^6 CFU/mL per fish i.p., to day 14 after infection, untreated control 95%
[2] = system: Edwardsiella tarda E08-18 strain (エドワジエラ・タルダ E08−18株); experiment: Test Example 2: artificial infection treatment test (1) in red sea bream; format: in vivo; conditions: 40 mg (potency)/kg oral in feed, 6 days
[3] = system: Edwardsiella tarda (エドワジエラ・タルダ); experiment: Test Example 1: in vitro antibacterial activity (MIC, Japanese Society of Chemotherapy method); format: cell-based; conditions: oxytetracycline hydrochloride-resistant strains; result in words

CN(C)[C@@H]1C(=O)C(C(N)=O)=C(O)[C@@]2(O)C(=O)C3=C(O)c4c(O)cccc4[C@@](C)(O)[C@H]3[C@H](O)[C@@H]12.Cl [塩酸オキシテトラサイクリン] was tested, and the mortality rate ([1]; 50 mg (potency)/kg oral in feed, 7 days) was 100%.

In the case of C[C@@H]1O[C@@H]1P(=O)(O)O [ホスホマイシン・カルシウム, カルシウム塩], the mortality rate ([2]; red sea bream juveniles (29 g), 3.6×10^6 CFU/mL per fish i.p., to day 14 after infection, untreated control 95%) is reported as 10% and the mortality rate ([1]; 40 mg (potency)/kg oral in feed, 6 days) is reported as 25%.

C[C@@H]1O[C@@H]1P(=O)(O)O [ホスホマイシン] was tested, and the “recovery of feeding activity” value ([2]; red sea bream juveniles, after bacterial inoculation) was “摂餌活性の回復が早まる”, the antibacterial activity [3] was “強い抗菌活性を示す” and the “recovery of feeding activity” value ([1]; red sea bream juveniles, 40 mg (potency)/kg oral in feed, 6 days, compared with oxytetracycline hydrochloride and untreated groups) was “塩酸オキシテトラサイクリンや無投薬の群よりも摂餌活性の回復が早まる”.

— patent JP2012067022A, “ホスホマイシンを有効成分とする魚類のエドワジエラ症治療剤” (Meiji Seika Kaisha Ltd, priority 2010, dated 2012)
